Test results as given in ChEMBL document CHEMBL2396623, “Direct targeting of β-catenin: Inhibition of protein-protein interactions for the inactivation of Wnt signaling” (Bioorg Med Chem, 2013).
pIC50: −log10 of the molar value.

Molecular target: T1, Catenin beta-1 (Homo sapiens, UniProt P35222)
T1 sequence (P35222 whole entry): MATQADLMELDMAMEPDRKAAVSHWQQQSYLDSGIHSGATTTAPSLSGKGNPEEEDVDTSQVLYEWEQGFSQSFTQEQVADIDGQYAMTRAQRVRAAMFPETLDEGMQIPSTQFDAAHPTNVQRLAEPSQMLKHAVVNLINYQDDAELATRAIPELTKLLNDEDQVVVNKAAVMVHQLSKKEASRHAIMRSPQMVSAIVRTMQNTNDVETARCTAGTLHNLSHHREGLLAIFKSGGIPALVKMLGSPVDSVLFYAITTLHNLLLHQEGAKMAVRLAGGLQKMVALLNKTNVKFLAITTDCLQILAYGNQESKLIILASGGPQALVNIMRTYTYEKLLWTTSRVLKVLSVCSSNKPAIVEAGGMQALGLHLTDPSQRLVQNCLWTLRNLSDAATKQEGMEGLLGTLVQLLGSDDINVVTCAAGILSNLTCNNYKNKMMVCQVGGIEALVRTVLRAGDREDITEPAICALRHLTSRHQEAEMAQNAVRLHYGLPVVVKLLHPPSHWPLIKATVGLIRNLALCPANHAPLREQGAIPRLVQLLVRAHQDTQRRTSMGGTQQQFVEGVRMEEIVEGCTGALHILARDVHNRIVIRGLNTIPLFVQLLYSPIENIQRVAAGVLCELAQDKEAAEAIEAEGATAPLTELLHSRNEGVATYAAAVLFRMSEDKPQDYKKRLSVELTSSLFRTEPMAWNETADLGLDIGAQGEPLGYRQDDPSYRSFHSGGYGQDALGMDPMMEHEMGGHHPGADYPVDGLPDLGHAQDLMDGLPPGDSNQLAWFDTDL
Experiment: Inhibition of GST-tagged Tcf4 binding to human beta-catenin after 2 hrs by ELISA

| SMILES | pIC50 |
| --- | --- |
| CCCC(=O)c1cc2c(c(O)c1C)C(=O)C(=O)c1c(O)cccc1-2 | > 5.00 |
| COC(=O)c1c(C)cc2c(c1O)[C@]1(O)C(=O)c3cc4c(c(O)c3C(=O)[C@]1(OC)[C@H](O)C2)C(=O)C=C(N[C@@H]1O[C@H](C)[C@@H](OC)[C@H](O)[C@@H]1OC)C4=O | > 5.00 |
| COc1c(CC(C)OC(=O)c2c(C)cc(O)cc2O)c2c3c(CC(C)OC(=O)c4c(C)cc(O)cc4O)c(OC)c(=O)c4c(O)cc(OC)c(c5c(OC)cc(O)c(c1=O)c52)c43 (centres undefined) | > 5.00 |
| COc1c(C[C@@H](C)OC(=O)Oc2ccc(O)cc2)c2c3c(C[C@@H](C)OC(=O)c4ccccc4)c(OC)c(=O)c4c(O)cc(OC)c(c5c(OC)cc(O)c(c1=O)c52)c43 [CALPHOSTIN C] | > 5.00 |
